Starred links: 1 amine or outer side, 2 acyl side, 3 side chain; linkers in the order of their positions; H or OH if unused. Residues, ends and D or L forms follow the SMILES beside them. Groups on a side chain read outwards from the residue. *: point of attachment. Glutaryl = O=C(CCCC(=O)[*:2])[*:1]; NHNH2 = NN*
Experiments:
Assay type in all cases: cell-based
HCT116 cells = experiment: RLuc pDNA delivery, robotic library screening, HCT116
[1] = system: A549 cells expressing EGFP; experiment: EGFP-targeting siRNA delivery (GFP silencing vs siMOCK), A549; details: for percentage of GFP-silencing relative to siMOCK: A549 cells
Description: (§1) To generate an EGFP expressing HeLa cell line, HeLa cells were transfected with EGFP pDNA (pEGFP-C1, Clontech) and stable transfectants were selected with 400 μg/mL of G-418 (Millipore). Green clones were selected by epifluorescence microscopy and tested for EGFP expression stability through several passages. […] All other EGFP-expressing cell lines were obtained in a similar way from parent non-EGFP-expressing cell lines.
Cells expressing EGFP were seeded in a 96 well plate the day before the experiment at a concentration of 50,000 cell/mL (100 μL/w) in DMEM+10% FBS+1% Gln-Abt. For robotic library screening, the delivery of an EGFP-targeting siRNA (EGFP: enhanced green fluorescent protein, Ambion® Silencer® GFP Positive Control siRNA (siGFP) (AM4626)) in six different cell lines expressing EGFP was performed. […] The mixture was shaken for 30 min at room temperature (rt) before the addition to the cells. The cell medium was aspirated, and cells were washed twice with PBS. Finally, 50 μL of the solution of siRNA/amphiphile complexes were added to the cells and incubated for 4 h. After transfection, the medium was replaced by 100 μL of fresh DMEM supplemented with 10% FBS. The fluorescence knockdown was quantified after 72 h in a plate reader, by comparison with cells transfected with a non-targeting siRNA control (siMOCK, Silencer™ Negative Control No. 1 siRNA (siMOCK) (AM4611)). EGFP knockdown was compared with Lipofectamine® RNAiMAX silencing efficiency (30-60% depending on cell line, defined with a numeric value in the below tables). All experiments were done in triplicate.
Tables 1-7: RLuc (pDNA) or EGFP (mRNA) expression levels were normalized to Lipofectamine reagents (value=1) and expressed as fold-times signal increase. In the case of siRNA, the siRNA treated cells fluorescence was compared with siMOCK control fluorescence, while Cas9-RNP mediated knockout was measured against the fluorescence of untreated cells. In both siRNA and Cas9-RNP, values are expressed as % fluorescence reduction. Amphiphile concentration was 5 μM in all cases. All experiments were performed in triplicate.
Tables 20-25 show the mean (triplicates) percentage of GFP-silencing, accounted by fluorescence intensity decrease relative to a non-targeting siRNA (siMOCK) control, measured after the transfection of siRNA by different amphiphiles at different concentrations in a variety of cell lines. Background values, accounted by untreated control cells, were subtracted for processing.

[2] = system: ARPE19 cells expressing EGFP; experiment: Cas9-RNP delivery against EGFP (gene editing, plate reader), ARPE19
Description: as §1
Cells expressing EGFP were seeded in a 96 well plate the day before the experiment at a concentration of 50,000 cell/mL (100 μL/w) in DMEM+10% FBS+1% Gln-Abt. For robotic library screening, the delivery of Cas9-RNP against EGFP (RNP designed to knock-out the gene encoding for the enhanced green fluorescent protein (EGFP)) was performed. For RNP assembly, 9.2 μL of crRNA and 9.2 μL of tracrRNA were mixed in 211.6 μL of Nuclease-Free Duplex Buffer (IDT), incubated for 5 min at 95° C. and slowly cooled at rt (see I. Lostalé-Seijo, et al. Peptide/Cas9 nanostructures for ribonucleoprotein cell membrane transport and gene edition, Chem. Sci., 2017). Cas9 protein was dissolved in DMEM at a final concentration of 4 μM and equal volumes of the RNA complex and Cas9 were mixed and incubated for 5 min at rt. 75 μL of the corresponding amphiphile concentrations were added to 5 μL of RNP at 2 μM. The mixture was shaken for 30 min at room temperature before the addition to the cells. The cell medium was aspirated, and cells were washed twice with PBS. Cells were covered with 30 μL of DMEM and 20 μL of the RNP/amphiphile complexes were added to the cells (final peptide concentrations=2.5, 5 and 10 μM; final Cas9-RNP concentration=50 nM) and incubated for 4 h. After the incubation, the medium was replaced by 100 μL of fresh DMEM supplemented with 10% FBS. The total EGFP fluorescence was quantified after 72 h in a plate reader (FIG. 2, Table 1 (right) and Table 6). All experiments were done in triplicate. […]
Tables 26-31 show the mean (triplicates) percentage of gene editing, accounted by GFP fluorescence intensity decrease (% of reduction), measured after the transfection of Cas9-RNP by different amphiphiles at different concentrations in a variety of cell lines. Background values, accounted by untreated control cells, were subtracted for processing.

| Molecule | mean luminescent intensity (RLuc pDNA) (HCT116 cells; Myristoleyl, 5 μM) | mean luminescent intensity (RLuc pDNA) (HCT116 cells; Myristoleyl, 15 μM) | mean luminescent intensity (RLuc pDNA) (HCT116 cells; Palmitoleyl, 5 μM) | mean luminescent intensity (RLuc pDNA) (HCT116 cells; Petroselinyl, 5 μM) | mean luminescent intensity (RLuc pDNA) (HCT116 cells; Petroselinyl, 10 μM) | mean luminescent intensity (RLuc pDNA) (HCT116 cells; Petroselinyl, 15 μM) | percentage of GFP-silencing relative to siMOCK ([1]; Myristoleyl, 10 μM) | percentage of GFP-silencing relative to siMOCK ([1]; Myristoleyl, 15 μM) | percentage of GFP-silencing relative to siMOCK ([1]; Oleyl, 5 μM) | percentage of GFP-silencing relative to siMOCK ([1]; Oleyl, 10 μM) | percentage of GFP-silencing relative to siMOCK ([1]; Oleyl, 15 μM) | percentage of GFP-silencing relative to siMOCK ([1]; Palmitoleyl, 15 μM) | percentage of GFP-silencing relative to siMOCK ([1]; Petroselinyl, 10 μM) | percentage of GFP-silencing relative to siMOCK ([1]; Petroselinyl, 15 μM) | also measured |
| --- | --- | --- | --- | --- | --- | --- | --- | --- | --- | --- | --- | --- | --- | --- | --- |
| CC(=O)N[C@@H](CCCNC(=N)N)C(=O)N[C@@H](CCCCNC(=O)CCCC(=O)NN)C(=O)N[C@@H](Cc1c[nH]cn1)C(=O)N[C@@H](CCCNC(=N)N)C(=O)N[C@@H](CCCCNC(=O)CCCC(=O)NN)C(=O)N[C@@H](CCCCNC(=O)CCCC(=O)NN)C(=O)N[C@@H](Cc1c[nH]cn1)C(N)=O [7.3(L-H), Ac-RK*HRK*K*H-NH2] (Ac-RK([Glutaryl-NHNH2])HRK([Glutaryl-NHNH2])K([Glutaryl-NHNH2])H-NH2) | 193237 RLU | 42433 RLU | 294813 RLU | 147949 RLU | 114522 RLU | 48178 RLU | 22% | 31% | 2% | 14% | 21% | 40% | 20% | 52% | mean luminescent intensity (RLuc pDNA) (HCT116 cells; Myristoleyl, 10 μM): 172603 RLU; mean luminescent intensity (RLuc pDNA) (HCT116 cells; Palmitoleyl, 10 μM): 248907 RLU; mean luminescent intensity (RLuc pDNA) (HCT116 cells; Palmitoleyl, 15 μM): 89543 RLU; pDNA delivery, times better than Lipofectamine 2000 (HCT116 cells; palmitoleyl aldehyde): up to 10 times; percentage of GFP-silencing relative to siMOCK ([1]; Myristoleyl, 5 μM): 18%; percentage of gene editing, GFP fluorescence intensity decrease (% of reduction) ([2]; Myristoleyl, 5 μM): 19%; percentage of gene editing, GFP fluorescence intensity decrease (% of reduction) ([2]; Myristoleyl, 15 μM): 12%; percentage of gene editing, GFP fluorescence intensity decrease (% of reduction) ([2]; Oleyl, 5 μM): 1%; percentage of gene editing, GFP fluorescence intensity decrease (% of reduction) ([2]; Oleyl, 10 μM): 6%; percentage of gene editing, GFP fluorescence intensity decrease (% of reduction) ([2]; Oleyl, 15 μM): 15%; percentage of gene editing, GFP fluorescence intensity decrease (% of reduction) ([2]; Palmitoleyl, 5 μM): 37%; percentage of gene editing, GFP fluorescence intensity decrease (% of reduction) ([2]; Palmitoleyl, 10 μM): 31%; percentage of gene editing, GFP fluorescence intensity decrease (% of reduction) ([2]; Petroselinyl, 5 μM): 18% |
| Ac-RHLK*RHK*RRLK*RH-NH2 (Ac-RHLKRHKRRLKRH-NH2; not fully specified (residues 4, 7, 11); printed as Ac-RHLK*RHK*RRLK*RH-NH2; also: linker on K* not given here) [13(3His)] | 94125 RLU | 738 RLU | 109244 RLU | 19145 RLU | 45000 RLU | 8961 RLU | 28% | 25% | 22% | 26% | 29% | 28% | 42% | 71% | mean luminescent intensity (RLuc pDNA) (HCT116 cells; Dodecanal, 5 μM): 22167 RLU; mean luminescent intensity (RLuc pDNA) (HCT116 cells; Dodecanal, 10 μM): 7176 RLU; siRNA % fluorescence reduction vs siMOCK ([1]; A549, amphiphile 5 μM, hydrophobic tail): 71%; percentage of GFP-silencing relative to siMOCK ([1]; Dodecanal, 10 μM): 10%; percentage of GFP-silencing relative to siMOCK ([1]; Dodecanal, 15 μM): 37%; percentage of GFP-silencing relative to siMOCK ([1]; Palmitoleyl, 10 μM): 36%; percentage of gene editing, GFP fluorescence intensity decrease (% of reduction) ([2]; Petroselinyl, 15 μM): 34% |
